Laboratory results published in article PMC4533973, “Synthesis and Evaluation of Chloramphenicol Homodimers: Molecular Target, Antimicrobial Activity, and Toxicity against Human Cells” (PLoS ONE, 2015).

Key:
[1] = test system: post-translocation ribosomal complex (complex C) derived from E. coli; assay: Inhibition of peptide-bond formation (puromycin reaction, AcPhe-puromycin synthesis); format: biochemical; conditions: for Ki: 25°C, buffer A; for k off: nonlinear regression of k eq; for activity compared to CAM: ranking by K i*
Procedure: The inhibitory effect of CAM dimers on peptide-bond formation was studied using the puromycin reaction, a model reaction between puromycin and a post-translocation ribosomal complex (complex C) derived from E. coli. Since puromycin, a pseudo-substrate of PTase which binds to the A-site of the catalytic center, was present in excess, the reaction obeyed first-order kinetics. The first-order rate constant, k obs, at each concentration of puromycin was determined by fitting the x values into Eq 1, ln100/100−x=kobst (1) where x is the product AcPhe-puromycin, expressed as the percentage of complex C added in the reaction mixture, and t is the time of the reaction.
A representative time plot obtained at 400 μM puromycin, in the absence of inhibitor, is illustrated in Fig 3A (upper line) and, as expected, is characterized by linearity. However, when the reaction proceeded in the presence of a CAM dimer, e.g. compound 5, the time plots were characterized by two unique features that distinguish them from a typical kinetic behavior. […] Second, the slopes of both progress curves varied as a function of the inhibitor concentration (Fig 3A, four lower curves). […] These kinetic results are consistent with compound 5 operating through an induced fit mechanism (Fig 3C), in which the inhibitor first binds rapidly to complex C to form the encounter complex CI, which then undergoes a slow conformational change to produce a final, tighter complex C*I. Corroborative evidence for the consistency of this model is provided by the hyperbolic shape of the equilibration plots (k eq versus [I]), in which k eq represents the apparent rate constant for the attainment of equilibrium among C, CI, and C*I (Fig 3B). If one-step mechanism of inhibition was applicable (C + I ⇄ C*I), k eq should be a linear function of [I] [27]. […] Because the isomerization constant k on/k off was calculated to be 3.6, the inhibition process was finally associated with high overall inhibition of peptide-bond formation (Ki* = 0.3 μM; S1 Fig, panel C). In addition, the slow k off rate (0.64 min^-1) provided prolonged residence time for compound 5 at the ribosome, a behavior potentially predicting good efficacy in vivo [28].
The puromycin reaction, i.e. the reaction between complex C and excess puromycin (S), was carried out at 25°C in buffer A [100 mM Tris-HCl pH 7.2, 6 mM (CH3COO)2Mg, 100 mM NH4Cl and 6 mM 2-mercaptoethanol]. Under these conditions, the puromycin reaction obeys C + S ⇄KS CS→kcat C^′ + S pseudo-first-order kinetics and was analyzed as previously described.
In the presence of CAM dimers, biphasic semi-logarithmic time plots were obtained. The slope of the straight line through the origin was seen as the value of the apparent rate constant, k obs(early), at the early phase of the reaction. Similarly, the slope of the second straight line was taken as the apparent rate constant, k obs(late), at the late phase of the puromycin reaction.

E. faecium (GRE5152) = assay: Antibacterial activity (growth inhibition, EC50); format: cell-based; conditions: Enterococcus faecium; TSB medium, 37°C, OD560; read-out: EC50
Text: (§1) A.S. Mankin (University of Illinois). E. coli ΔtolC strain BL21 DE3 with impaired AcrAB-TolC, a proton-dependent MDR efflux pump causing multidrug resistance, was offered by Dr D.N. Wilson (University of Munich) and included in our study to test if this mechanism of resistance affects the efficacy of CAM dimers. […] I. Spiliopoulou (National Reference Laboratory for Staphylococci, School of Medicine, University of Patras, Greece). Finally, E. coli strain Rosetta(DE3)pLysS, containing a chloramphenicol resistant gene in the pLysS plasmid, was purchased from Novagen and was also included in our study. Briefly, S. aureus or E. coli cells (200 μl of a 0.700 OD560 preculture) containing wild-type or mutant ribosomes were added in 3.8 ml of LB (Luria-Bertani) medium and grown at 37°C in the presence or absence of CAM or CAM dimers until the optical density of the control culture (grown in the absence of drug) reached the value 0.700 at 560 nm. For E. faecium and P. aeruginosa cultures, TSB (Tryptic Soy Broth) medium was used, instead of LB medium, in order to achieve exponential doubling times between 25 and 35 minutes. From dose-response curves, the half-maximal effective concentration (EC50) for each compound and strain was estimated. EC50 represents the molar concentration of a compound that produces 50% of the maximal possible effect. The EC50 values were mathematically determined by non linear regression fitting of the observed culture optical-density values, expressed as the percentage of 0.700 (y), into Hill Equation, y=min+max−min/1+(x/EC50)^−n where min and max are the lowest and highest observed values of the culture optical density, respectively, x the concentration of the tested compound, and n the Hill coefficient that represents the largest absolute value of the curve slope. EC50 is equal to the x- value of the sigmoid’s midpoint. Fitting was performed using the Four Parameter Logistic Curve of the SigmaPlot Program Version 11.0 (Systat Software, Inc) for Exact Graphs and Data Analysis.

MRSA (GRE2272) = assay: Antibacterial activity (growth inhibition, EC50); format: cell-based; conditions: Staphylococcus aureus, LB medium, 37°C, OD560, read-out: EC50
Text: as §1

MRSA (GRE2691) = assay: Antibacterial activity (growth inhibition, EC50); format: cell-based; conditions: Staphylococcus aureus, LB medium, 37°C, OD560, read-out: EC50
Text: as §1

S. aureus (WT) = assay: Antibacterial activity (growth inhibition, EC50); format: cell-based; conditions: Staphylococcus aureus; LB medium, 37°C, OD560; read-out: EC50
Text: as §1

E. coli (A2058G) = assay: Antibacterial activity (growth inhibition, EC50); format: cell-based, Escherichia coli; conditions: Escherichia coli
Text: as §1

E. coli (A2503C) = assay: Antibacterial activity (growth inhibition, EC50); format: cell-based, Escherichia coli; conditions: Escherichia coli
Text: as §1

E. coli (WT) = assay: Antibacterial activity (growth inhibition, EC50); format: cell-based, Escherichia coli; conditions: for EC50: Escherichia coli, LB medium, 37°C, OD560; for EC50(cell growth)/IC50(puro): wild-type E. coli, IC50(puro) calculated from Ki* at 2 mM puromycin
Text: as §1

E. coli (ΔtolC) = assay: Antibacterial activity (growth inhibition, EC50); format: cell-based, Escherichia coli; conditions: Escherichia coli, BL21-DE3
Text: as §1

[2] = test system: E. coli Rosetta(DE3)pLysS; assay: Antibacterial activity (growth inhibition, EC50); format: cell-based, Escherichia coli; conditions: Escherichia coli
Text: as §1

P. aeruginosa (GRE5288) = assay: Antibacterial activity (growth inhibition, EC50); format: cell-based, Pseudomonas aeruginosa; conditions: Pseudomonas aeruginosa; TSB medium; clinical isolate with MexAB-OprM and MexXY efflux; read-out: EC50
Text: as §1

[3] = overall inhibition constant (CI + C*I)

Compound	Ki ([1]; encounter complex CI) [µM]	k off [1] [s⁻¹]	Ki [1, 3] [µM]	activity compared to CAM [1]	EC50 (E. faecium (GRE5152)) [µM]	EC50 (MRSA (GRE2272)) [µM]	EC50 (MRSA (GRE2691)) [µM]	EC50 (S. aureus (WT)) [µM]	EC50 (E. coli (A2058G)) [µM]	EC50 (E. coli (A2503C)) [µM]	EC50 (E. coli (WT)) [µM]	EC50(cell growth)/IC50(puro) (E. coli (WT))	EC50 (E. coli (ΔtolC)) [µM]	EC50 [2] [µM]	EC50 (P. aeruginosa (GRE5288)) [µM]	melting point [°C]
O=C(CC(=O)N[C@H](CO)[C@H](O)c1ccc([N+](=O)[O-])cc1)N[C@H](CO)[C@H](O)c1ccc([N+](=O)[O-])cc1 [Compound 1, N^1,N^3-Bis((1R,2R)-1,3-dihydroxy-1-(4-nitrophenyl)propan-2-yl)malonamide]	2.4 ± 0.18	0.01 ± 0.00083	0.6 ± 0.05	comparable	> 200	> 200	> 200	32.2 ± 1	> 200	> 200	> 200	>55.5	> 200	> 200	> 100	142 to 143
O=C(/C=C/C(=O)N[C@H](CO)[C@H](O)c1ccc([N+](=O)[O-])cc1)N[C@H](CO)[C@H](O)c1ccc([N+](=O)[O-])cc1 [Compound 2, N^1,N^4-Bis((1R,2R)-1,3-dihydroxy-1-(4-nitrophenyl)propan-2-yl)fumaramide]	2.7 ± 0.25	0.0117 ± 0.00083	0.75 ± 0.06	comparable	> 200	> 200	> 200	44.4 ± 2.9	> 200	> 200	> 200	>44.4	> 200	> 200	> 100	207 to 208
O=C(CCCC(=O)N[C@H](CO)[C@H](O)c1ccc([N+](=O)[O-])cc1)N[C@H](CO)[C@H](O)c1ccc([N+](=O)[O-])cc1 [Compound 3, N^1,N^5-Bis((1R,2R)-1,3-dihydroxy-1-(4-nitrophenyl)propan-2-yl)glutaramide]	4.5 ± 0.36	0.0167 ± 0.0005	1.2 ± 0.09	lower	69.8 ± 14.8	20.8 ± 2.5	27.2 ± 3.4	17.4 ± 1.3	47.3 ± 6.9	68.1 ± 13.8	52.4 ± 6.8	7.28 ± 1.08	43.7 ± 5.2	65.1 ± 6.6	42.4 ± 8.7	
O=C(CCCCCCC(=O)N[C@H](CO)[C@H](O)c1ccc([N+](=O)[O-])cc1)N[C@H](CO)[C@H](O)c1ccc([N+](=O)[O-])cc1 [Compound 6, N^1,N^8-Bis((1R,2R)-1,3-dihydroxy-1-(4-nitrophenyl)propan-2-yl)octane-diamide]	10.5 ± 0.9	0.0133 ± 0.00067	2.3 ± 0.2	lower	> 200	> 200	> 200	49.6 ± 5.4	> 200	> 200	> 200	>14.5	> 200	> 200	> 100	131 to 132
O=C(CCCCCCCC(=O)N[C@H](CO)[C@H](O)c1ccc([N+](=O)[O-])cc1)N[C@H](CO)[C@H](O)c1ccc([N+](=O)[O-])cc1 [Compound 7, N^1,N^9-Bis((1R,2R)-1,3-dihydroxy-1-(4-nitrophenyl)propan-2-yl)nonanediamide]	12 ± 1.2	0.014 ± 0.001	2.8 ± 0.27	lower	> 200	> 200	> 200	72.7 ± 11.8	> 200	> 200	> 200	>11.9	> 200	> 200	> 100	137 to 139
O=C(/C=C/c1ccc(/C=C/C(=O)N[C@H](CO)[C@H](O)c2ccc([N+](=O)[O-])cc2)cc1)N[C@H](CO)[C@H](O)c1ccc([N+](=O)[O-])cc1 [Compound 8, N,N^’-Bis((1R,2R)-1,3-dihydroxy-1-(4-nitrophenyl)propan-2-yl)-1,4-phenylene diacryldiamide]				no activity	> 200	> 200	> 200	> 200	> 200	> 200	> 200		> 200	> 200	> 100	144 to 145
